We go through one compound from paper PMC7486443, “Generation of Phenothiazine with Potent Anti-TLK1 Activity for Prostate Cancer Therapy” (iScience, 2020).

Targets include AURKA (Homo sapiens, UniProt O14965); CIT (Homo sapiens, UniProt O14578); CSNK1G1 (Homo sapiens, UniProt Q9HCP0); GRK3 (Homo sapiens, UniProt P35626); HIPK3 (Homo sapiens, UniProt Q9H422); PDGFRA (Homo sapiens, UniProt P16234); PIK3C2B (Homo sapiens, UniProt O00750); PRKD2 (Homo sapiens, UniProt Q9BZL6); STK16 (Homo sapiens, UniProt O75716); TGFBR1 (Homo sapiens, UniProt P36897); TYRO3 (Homo sapiens, UniProt Q06418); WNK3 (Homo sapiens, UniProt Q9BYP7).

Holding throughout (experiment): biochemical
What all share (design): DiscoverX KINOMEscan scanMAX competition binding panel, single concentration, percent of control; remaining binding: dose or concentration left out as unconfirmed
Common to all, as to settings: KINOMEscan binding, percent of control; read-out: Table S4_SCANMAX REPORT - related to Fig. 1 / Percent Control

The target of assay [1] is T1, ABL1(H396P)-phosphorylated (Homo sapiens, UniProt P00519, H396P).
T1 construct: phosphorylated

The target in a further assay is T2, ADCK4 (Homo sapiens, UniProt Q96D53).
T2 construct: gene COQ8B

The target of a further assay is T3, ASK1 (Homo sapiens, UniProt Q99683).
T3 construct: gene MAP3K5
T3 sequence (Q99683 whole entry): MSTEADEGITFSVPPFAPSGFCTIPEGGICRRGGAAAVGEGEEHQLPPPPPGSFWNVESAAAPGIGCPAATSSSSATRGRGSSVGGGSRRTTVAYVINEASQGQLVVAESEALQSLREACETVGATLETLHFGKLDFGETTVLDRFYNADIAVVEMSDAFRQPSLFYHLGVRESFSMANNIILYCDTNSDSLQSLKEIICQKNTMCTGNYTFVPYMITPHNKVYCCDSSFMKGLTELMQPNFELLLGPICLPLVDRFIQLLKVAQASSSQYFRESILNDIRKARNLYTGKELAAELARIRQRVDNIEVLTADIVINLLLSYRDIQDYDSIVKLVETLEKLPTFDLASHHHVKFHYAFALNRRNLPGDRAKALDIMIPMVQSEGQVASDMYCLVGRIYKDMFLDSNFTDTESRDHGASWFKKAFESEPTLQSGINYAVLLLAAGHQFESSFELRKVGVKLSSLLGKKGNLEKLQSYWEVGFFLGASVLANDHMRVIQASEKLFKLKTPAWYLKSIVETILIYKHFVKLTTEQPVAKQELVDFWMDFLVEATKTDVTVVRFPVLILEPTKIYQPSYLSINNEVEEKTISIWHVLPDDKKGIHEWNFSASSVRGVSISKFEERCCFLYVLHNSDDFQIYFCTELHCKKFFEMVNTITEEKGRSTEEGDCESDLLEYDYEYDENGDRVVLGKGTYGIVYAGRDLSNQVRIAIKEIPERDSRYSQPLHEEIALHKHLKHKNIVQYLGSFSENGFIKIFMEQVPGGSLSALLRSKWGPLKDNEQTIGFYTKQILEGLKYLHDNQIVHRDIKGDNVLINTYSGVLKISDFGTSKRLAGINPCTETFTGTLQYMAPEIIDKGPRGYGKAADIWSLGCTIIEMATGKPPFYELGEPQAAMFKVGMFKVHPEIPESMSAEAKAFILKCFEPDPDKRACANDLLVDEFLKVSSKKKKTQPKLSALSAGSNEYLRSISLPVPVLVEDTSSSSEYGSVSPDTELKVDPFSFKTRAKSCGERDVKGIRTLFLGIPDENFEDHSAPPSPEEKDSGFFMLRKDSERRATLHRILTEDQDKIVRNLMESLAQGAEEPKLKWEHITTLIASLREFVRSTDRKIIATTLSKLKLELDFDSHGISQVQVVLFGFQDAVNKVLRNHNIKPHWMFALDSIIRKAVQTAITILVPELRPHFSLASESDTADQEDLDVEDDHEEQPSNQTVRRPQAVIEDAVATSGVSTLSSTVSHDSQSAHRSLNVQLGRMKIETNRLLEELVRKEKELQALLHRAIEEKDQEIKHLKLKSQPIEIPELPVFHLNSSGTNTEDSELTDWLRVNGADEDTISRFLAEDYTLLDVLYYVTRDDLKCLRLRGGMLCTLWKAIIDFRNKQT

The next assay deals with T4, IKK-alpha (Homo sapiens, UniProt O15111).
T4 construct: gene CHUK

Assay [2] has as its target T5, JAK3(JH1domain-catalytic) (Homo sapiens, UniProt P52333).
T5 construct: JH1domain-catalytic

The next assay has as its target T6, MLK2 (Homo sapiens, UniProt Q02779).
T6 construct: gene MAP3K10

Another assay concerns the target T7, PAK7 (Homo sapiens, UniProt Q9P286).
T7 construct: gene PAK5

Chain of AURKA (O14965 whole entry): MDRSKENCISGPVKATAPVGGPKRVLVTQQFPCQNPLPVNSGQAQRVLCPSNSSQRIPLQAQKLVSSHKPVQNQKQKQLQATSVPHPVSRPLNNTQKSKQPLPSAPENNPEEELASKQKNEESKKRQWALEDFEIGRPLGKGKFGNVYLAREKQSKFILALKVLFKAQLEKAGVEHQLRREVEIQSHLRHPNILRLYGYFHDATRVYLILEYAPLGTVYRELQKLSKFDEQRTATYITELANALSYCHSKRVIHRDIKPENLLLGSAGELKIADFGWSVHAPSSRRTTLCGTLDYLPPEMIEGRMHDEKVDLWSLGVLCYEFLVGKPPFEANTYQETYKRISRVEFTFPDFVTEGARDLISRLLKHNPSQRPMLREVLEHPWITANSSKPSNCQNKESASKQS
Chain of GRK3 (P35626 whole entry): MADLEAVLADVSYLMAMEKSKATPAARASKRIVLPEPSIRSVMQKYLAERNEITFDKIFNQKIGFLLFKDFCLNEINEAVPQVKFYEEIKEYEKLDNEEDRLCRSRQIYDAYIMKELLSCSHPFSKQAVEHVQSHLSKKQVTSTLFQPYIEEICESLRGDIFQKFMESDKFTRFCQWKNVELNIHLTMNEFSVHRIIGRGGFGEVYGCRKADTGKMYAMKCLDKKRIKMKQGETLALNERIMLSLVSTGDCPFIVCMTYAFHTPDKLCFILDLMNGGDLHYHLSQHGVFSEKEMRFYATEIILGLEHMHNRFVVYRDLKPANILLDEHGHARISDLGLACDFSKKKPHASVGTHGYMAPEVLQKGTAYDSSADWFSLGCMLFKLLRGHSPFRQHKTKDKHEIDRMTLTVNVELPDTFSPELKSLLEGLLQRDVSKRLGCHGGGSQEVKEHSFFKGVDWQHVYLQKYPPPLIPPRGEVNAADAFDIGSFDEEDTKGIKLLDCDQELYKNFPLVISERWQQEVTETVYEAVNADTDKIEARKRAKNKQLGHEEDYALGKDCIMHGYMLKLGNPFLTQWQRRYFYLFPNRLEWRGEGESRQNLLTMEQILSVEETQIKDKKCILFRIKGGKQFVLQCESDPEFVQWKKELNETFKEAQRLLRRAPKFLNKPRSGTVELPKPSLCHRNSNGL
Chain of HIPK3 (Q9H422 whole entry): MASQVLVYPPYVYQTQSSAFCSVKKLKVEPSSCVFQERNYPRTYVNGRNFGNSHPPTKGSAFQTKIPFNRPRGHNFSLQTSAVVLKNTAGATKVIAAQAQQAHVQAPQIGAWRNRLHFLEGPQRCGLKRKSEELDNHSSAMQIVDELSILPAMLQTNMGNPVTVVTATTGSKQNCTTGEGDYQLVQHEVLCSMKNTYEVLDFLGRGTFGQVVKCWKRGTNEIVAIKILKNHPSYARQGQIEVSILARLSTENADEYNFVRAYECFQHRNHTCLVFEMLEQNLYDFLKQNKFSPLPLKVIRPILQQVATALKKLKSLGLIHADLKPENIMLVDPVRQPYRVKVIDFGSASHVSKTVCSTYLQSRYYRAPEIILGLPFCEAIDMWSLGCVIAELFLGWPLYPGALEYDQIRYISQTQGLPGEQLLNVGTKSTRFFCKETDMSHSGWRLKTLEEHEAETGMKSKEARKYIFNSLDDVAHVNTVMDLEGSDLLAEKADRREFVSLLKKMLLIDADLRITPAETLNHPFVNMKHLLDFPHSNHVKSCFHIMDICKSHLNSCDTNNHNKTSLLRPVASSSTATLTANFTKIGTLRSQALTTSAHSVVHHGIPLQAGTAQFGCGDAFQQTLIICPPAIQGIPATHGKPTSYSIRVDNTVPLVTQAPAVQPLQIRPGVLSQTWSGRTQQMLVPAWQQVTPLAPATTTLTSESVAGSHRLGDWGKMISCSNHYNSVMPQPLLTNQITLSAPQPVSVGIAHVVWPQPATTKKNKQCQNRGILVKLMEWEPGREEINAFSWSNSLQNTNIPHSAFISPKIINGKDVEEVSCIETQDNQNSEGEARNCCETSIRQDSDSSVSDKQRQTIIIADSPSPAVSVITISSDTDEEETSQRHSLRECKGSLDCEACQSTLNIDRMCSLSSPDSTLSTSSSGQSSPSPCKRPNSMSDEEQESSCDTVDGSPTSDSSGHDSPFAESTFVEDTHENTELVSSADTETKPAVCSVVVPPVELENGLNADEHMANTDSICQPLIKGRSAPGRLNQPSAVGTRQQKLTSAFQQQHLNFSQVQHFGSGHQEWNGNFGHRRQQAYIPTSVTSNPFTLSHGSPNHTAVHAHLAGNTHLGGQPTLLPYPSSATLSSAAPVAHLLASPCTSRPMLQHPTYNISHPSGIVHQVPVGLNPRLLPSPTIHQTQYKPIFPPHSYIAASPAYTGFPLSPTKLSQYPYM
Chain of TGFBR1 (P36897 whole entry): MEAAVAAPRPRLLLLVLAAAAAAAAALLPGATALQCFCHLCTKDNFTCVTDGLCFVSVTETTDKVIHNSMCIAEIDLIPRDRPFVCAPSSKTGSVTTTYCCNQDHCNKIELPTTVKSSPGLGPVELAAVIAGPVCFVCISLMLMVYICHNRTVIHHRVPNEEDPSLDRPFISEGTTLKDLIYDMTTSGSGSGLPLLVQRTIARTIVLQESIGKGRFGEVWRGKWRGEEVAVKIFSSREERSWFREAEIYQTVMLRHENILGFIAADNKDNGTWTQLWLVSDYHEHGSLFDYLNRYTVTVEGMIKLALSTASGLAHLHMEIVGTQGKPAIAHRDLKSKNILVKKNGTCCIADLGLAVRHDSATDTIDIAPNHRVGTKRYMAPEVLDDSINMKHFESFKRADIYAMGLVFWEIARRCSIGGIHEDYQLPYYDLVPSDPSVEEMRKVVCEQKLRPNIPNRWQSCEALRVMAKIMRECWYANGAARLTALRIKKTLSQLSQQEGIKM
Chain of TYRO3 (Q06418 whole entry): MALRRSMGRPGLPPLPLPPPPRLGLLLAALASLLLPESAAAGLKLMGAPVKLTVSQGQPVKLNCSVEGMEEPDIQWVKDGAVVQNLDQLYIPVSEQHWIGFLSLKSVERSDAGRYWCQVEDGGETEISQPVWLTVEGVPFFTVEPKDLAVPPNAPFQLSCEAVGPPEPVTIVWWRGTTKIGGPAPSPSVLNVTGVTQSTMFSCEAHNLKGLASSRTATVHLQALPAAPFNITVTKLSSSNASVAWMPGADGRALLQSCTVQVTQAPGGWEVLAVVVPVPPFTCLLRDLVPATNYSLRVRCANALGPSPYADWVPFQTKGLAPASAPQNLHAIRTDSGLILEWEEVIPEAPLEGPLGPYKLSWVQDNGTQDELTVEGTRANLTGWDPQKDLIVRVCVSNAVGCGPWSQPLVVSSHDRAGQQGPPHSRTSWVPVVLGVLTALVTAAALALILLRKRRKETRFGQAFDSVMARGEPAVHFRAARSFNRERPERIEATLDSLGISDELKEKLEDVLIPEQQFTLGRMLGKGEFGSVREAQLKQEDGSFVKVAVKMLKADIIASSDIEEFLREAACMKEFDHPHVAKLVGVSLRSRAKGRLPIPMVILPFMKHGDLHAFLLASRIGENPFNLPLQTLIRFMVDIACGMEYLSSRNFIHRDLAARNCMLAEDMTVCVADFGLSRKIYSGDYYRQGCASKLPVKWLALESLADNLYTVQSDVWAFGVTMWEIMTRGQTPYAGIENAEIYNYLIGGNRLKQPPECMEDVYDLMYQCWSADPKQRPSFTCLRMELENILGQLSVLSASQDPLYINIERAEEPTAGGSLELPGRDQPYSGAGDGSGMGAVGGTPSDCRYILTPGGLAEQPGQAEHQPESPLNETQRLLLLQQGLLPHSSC

Take `c1ccc2c(c1)Sc1ccccc1N2CCN1CCOCC1` [J54]: the remaining binding is 100% in assay [1]; 75% on ADCK4; 98% on ASK1; 100% on AURKA; 88% at CIT; 100% at CSNK1G1. Further, the remaining binding on GRK3 turned out to be 93%; on HIPK3, 100%; at IKK-alpha, 100%; in assay [2], 85%; on MLK2 it was 97%; at PAK7, 100%. In addition, the remaining binding came out at 100% on PDGFRA; 96% on PIK3C2B; 95% at PRKD2; 99% on STK16; 100% on TGFBR1; 100% at TYRO3. Besides, the remaining binding on WNK3 is 98%.
